The values below come from PMC7806630, “Molecular basis of the interaction of the human tyrosine phosphatase PTPN3 with the hepatitis B virus core protein” (Scientific Reports, 2021).

The test system of one test is DLG1_1. Description: holdup assay, DLG1_1 PDZ domain. It is filed as binding, human. Particulars: biotinylated PBM-HBc peptide, in duplicates, BI > 0.2 significant.
The next test has as its system SIPA1L2. Put plainly: holdup assay, SIPA1L2 PDZ domain. In kind it is binding, human. Particulars: biotinylated PBM-HBc peptide, in duplicates, BI > 0.2 significant.
In the next test the test system is MPDZ. Put plainly: holdup assay, MPDZ PDZ domain. It is filed as binding, human. Particulars: biotinylated PBM-HBc peptide, in duplicates, BI > 0.2 significant.
The next test relates to DLG2_1. Put plainly: holdup assay, DLG2_1 PDZ domain. In kind it is binding, human. The following applies: biotinylated PBM-HBc peptide, in duplicates, BI > 0.2 significant.
The test system of the next test is DLG1_3. Put plainly: holdup assay, DLG1_3 PDZ domain. In kind it is binding, human. The following applies: biotinylated PBM-HBc peptide, in duplicates, BI > 0.2 significant.
The next test concerns DLG4_2_. Description: holdup assay, DLG4_2_ PDZ domain. In kind it is binding, human. Particulars: biotinylated PBM-HBc peptide, in duplicates, BI > 0.2 significant.
The next test has as its system TJP2. Put plainly: holdup assay, TJP2 PDZ domain. It is filed as binding, human. Particulars: biotinylated PBM-HBc peptide, in duplicates, BI > 0.2 significant.
The subject of the next test is SYNJ2BP. Put plainly: holdup assay, SYNJ2BP PDZ domain. In kind it is binding, human. The following applies: biotinylated PBM-HBc peptide, in duplicates, BI > 0.2 significant.
Another test has as its system MAGI2. Put plainly: holdup assay, MAGI2 PDZ domain. The following applies: biotinylated PBM-HBc peptide, in duplicates, BI > 0.2 significant. It is filed as binding, human.
The subject of a further test is SNTB1. Put plainly: holdup assay, SNTB1 PDZ domain. In kind it is binding, human. Particulars: biotinylated PBM-HBc peptide, in duplicates, BI > 0.2 significant.
The subject of a further test is GIPC1. Description: holdup assay, GIPC1 PDZ domain. In kind it is binding, human. The following applies: biotinylated PBM-HBc peptide, in duplicates, BI > 0.2 significant.
A further test concerns SNX27. Put plainly: holdup assay, SNX27 PDZ domain. The following applies: biotinylated PBM-HBc peptide, in duplicates, BI > 0.2 significant. It is filed as binding, human.
The test system of another test is SNTA1. Description: holdup assay, SNTA1 PDZ domain. It is filed as binding, human. The following applies: biotinylated PBM-HBc peptide, in duplicates, BI > 0.2 significant.
The subject of another test is DLG3_2. Put plainly: holdup assay, DLG3_2 PDZ domain. Particulars: biotinylated PBM-HBc peptide, in duplicates, BI > 0.2 significant. In kind it is binding, human.
A further test concerns MAGI3. Description: holdup assay, MAGI3 PDZ domain. In kind it is binding, human. The following applies: biotinylated PBM-HBc peptide, in duplicates, BI > 0.2 significant.
In another test the test system is SCRIB. Description: holdup assay, SCRIB PDZ domain. In kind it is binding, human. Particulars: biotinylated PBM-HBc peptide, in duplicates, BI > 0.2 significant.
A further test deals with InaDl. Put plainly: holdup assay, InaDl PDZ domain. In kind it is binding, human. Particulars: biotinylated PBM-HBc peptide, in duplicates, BI > 0.2 significant.
Another test concerns MAST2. Put plainly: holdup assay, MAST2 PDZ domain. It is filed as binding, human. Particulars: biotinylated PBM-HBc peptide, in duplicates, BI > 0.2 significant.
Another test deals with STXB4. Put plainly: holdup assay, STXB4 PDZ domain. It is filed as binding, human. The following applies: biotinylated PBM-HBc peptide, in duplicates, BI > 0.2 significant.
A further test relates to MAGI1. Description: holdup assay, MAGI1 PDZ domain. Particulars: biotinylated PBM-HBc peptide, in duplicates, BI > 0.2 significant. It is filed as binding, human.
Test [1] concerns human PDZ domains (the PDZome). Put plainly: holdup assay, PDZome profile. It is filed as binding. Particulars: holdup assay against human PDZome, threshold BI = 0.2.
The next test concerns PTPN4. Description: holdup assay, PTPN4 PDZ domain. In kind it is binding, human. Particulars: biotinylated PBM-HBc peptide, in duplicates, BI > 0.2 significant.
A further test has as its system DLG4_1. Description: holdup assay, DLG4_1 PDZ domain. The following applies: biotinylated PBM-HBc peptide, in duplicates, BI > 0.2 significant. In kind it is binding, human.
For the next test, the system named is DLG2_2. Description: holdup assay, DLG2_2 PDZ domain. It is filed as binding, human. The following applies: biotinylated PBM-HBc peptide, in duplicates, BI > 0.2 significant.
Another test concerns DLG4_3. Put plainly: holdup assay, DLG4_3 PDZ domain. In kind it is binding, human. The following applies: biotinylated PBM-HBc peptide, in duplicates, BI > 0.2 significant.
Another test relates to SNTB2. Description: holdup assay, SNTB2 PDZ domain. It is filed as binding, human. Particulars: biotinylated PBM-HBc peptide, in duplicates, BI > 0.2 significant.
A further test deals with DLG1_2. Put plainly: holdup assay, DLG1_2 PDZ domain. In kind it is binding, human. The following applies: biotinylated PBM-HBc peptide, in duplicates, BI > 0.2 significant.
The test system of the next test is GIPC2. Put plainly: holdup assay, GIPC2 PDZ domain. It is filed as binding, human. The following applies: biotinylated PBM-HBc peptide, in duplicates, BI > 0.2 significant.
Test [2] has as its target PTPN3-PDZ. The following applies: previously reported; cited from earlier work. The source says:
In the present study, we investigated the molecular mechanism of interaction between PTPN3 and HBc. […] We confirmed the interaction by NMR.

In test [3] the test system is PTPN3-PDZ. Put plainly: NMR binding of full-length HBc (CLPs) to PTPN3-PDZ. Also noted: species or system human. The following applies: 1H,15N HSQC-TROSY, 600 MHz, 20 °C, PTPN3-PDZ 95 μM, PDZ:HBc final ratio 1:19.4. The protocol: We then tested the complex formation between PTPN3-PDZ and the full-length HBc (Fig. 2c). ^1H, ^15N HSQC-TROSY spectra were recorded on ^15N-labeled PTPN3-PDZ in its free form (red signals in Fig. 2c) and in the presence of the unlabeled HBc full-length protein at different ratios. […] Indeed, wild type (WT) HBc proteins form homodimers and self-assemble into capsids, and the full-length HBc expressed in Escherichia coli mainly assembles into capsid-like particles (CLPs) of 3 to 5 million Da, as measured by analytical ultracentrifugation (AUC) (Fig. 2d). […] The molecular tumbling of PTPN3-PDZ is drastically slowed down when forming high molecular weight complexes with the CLPs, which induced the broadening of the linewidths of the PTPN3-PDZ signals beyond detection. Yet, the TROSY spectra of the complexes did contain a few peaks, which we attributed to regions of PTPN3-PDZ that remained mobile, probably the N-terminal and C-terminal extremities.
The NMR binding experiments between PTPN3-PDZ and full-length HBc as CLPs were performed at 20 °C on a 600-MHz BRUKER Avance III HD spectrometer equipped with a cryoprobe. […] A series of ^1H, ^15N HSQC-TROSY spectra was recorded for different titration points with a ratio PDZ:HBc (mol:mol) 1:0, 1:1.4, 1:5.6, and 1:19.4.

The test system of another test is GST-PTPN3-PDZ. Put plainly: GST pull-down assay with GST-PTPN3-PDZ. In kind it is binding, human. The following applies: lysate of HeLa S3 cells overexpressing HF-tagged HBc; anti-HA Western blot; GST alone as negative control. The protocol: To investigate whether the PBM at the end of CTD of HBc is accessible to PTPN3 binding during capsid assembly, a glutathione S-transferase (GST) pull-down in vitro assay was performed with lysates of HeLa S3 cells overexpressing the HA-Flag-tagged either wild-type full-length HBc (HF-HBc WT) or its Y132A mutant (HF-HBc Y132A) that forms dimers but is unable to assemble into capsids[35] (Fig. 3a; Supporting Information Fig. 1). GST protein was used as a negative control. The expression of HF-HBc WT and HF-HBc Y132A in the cell lysates was verified by Western blot using the anti-HA antibody (Fig. 3a, lane 5). We also confirmed, using native Western blot, the presence of capsid in the HeLaS3 HBc WT cell lysate and its absence in the HeLaS3 HBc Y132A cell lysate (Fig. 3b).
The construct PTPN3-PDZ tagged with a N-terminal GST (GST-PTPN3-PDZ) was expressed and purified as previously described[25] without TEV cleavage. The additional TEV cleavage step of GST-PTPN3-PDZ provides the GST alone. […]
After lysate binding, the glutathione-agarose beads were washed four times with binding buffer, pelleted, and resuspended in SDS-PAGE sample buffer for Western blotting. After boiling, the bound proteins were analyzed using 12% SDS-PAGE followed by Western blotting using HRP-conjugated HA Epitope Tag monoclonal antibody (26183-HRP, THERMOFISHER) diluted to 1:2000. […]

The target in test [4] is T1, PDZ domain of PTPN3 (PTPN3-PDZ), residues 489-597 (human, UniProt P26045 489-597).
T1 construct: not shown: GST, N-terminal, cleaved
T1 sequence (looked up): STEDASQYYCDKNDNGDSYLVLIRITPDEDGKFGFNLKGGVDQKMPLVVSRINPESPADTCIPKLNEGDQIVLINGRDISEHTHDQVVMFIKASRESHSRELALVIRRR
Put plainly: crystal structure; co-crystal of PTPN3-PDZ with PBM-HBc peptide added in excess; 20 mM HEPES pH 8, 150 mM NaCl, 0.5 mM TCEP; reservoir 20% PEG 3350, 0.2 M NaBr pH 7; 1.86 Å. Particulars: both partners purified.

As to -RRRRSQSRESQC [HBc PBM], the “BI (binding intensity)” value in the test with DLG1_1 is reported as 0,34; in the test on SIPA1L2 it was 0,24; with MPDZ, 0,46; in the test with DLG2_1 it was 0,35; in the test on DLG1_3, 0,34; in the test on DLG4_2_, 0,35. Further, the “BI (binding intensity)” value in the test on TJP2 is given as 0,27; with SYNJ2BP, 0,43; in the test with MAGI2 it was 0,51; in the test on SNTB1 it was 0,54; in the test with GIPC1, 0,85; in the test with SNX27, 0,39. Besides, the “BI (binding intensity)” value with SNTA1 is recorded as 0,25; in the test with DLG3_2, 0,36; in the test with MAGI3 it was 0,78; in the test with SCRIB, 0,23; with InaDl it was 0,29; in the test with MAST2 it was 0,21. Besides, the “BI (binding intensity)” value was 0,47 in the test on STXB4; 0,49 in the test with MAGI1; 0,58 in the test with PTPN4; 0,43 with DLG4_1; 0,38 with DLG2_2; 0,53 with DLG4_3. For the same molecule, the “BI (binding intensity)” value in the test on SNTB2 was 0,38; in the test on DLG1_2, 0,40; in the test on GIPC2, 0,31. In addition, the “number of potential HBc binders containing PDZ domains” value in test [1] worked out at 28.
Take “ETQL [PBM-16E6, PBM of the HPV16 E6 protein, reference compound]”: the KD result at PTPN3-PDZ [2] is “a few tens of”.
For the molecule “NH2RRRRSQSRESQCCOOH [PBM-HBc, PBM-HBc peptide (NH2…OOH)]”, the KD entry on PTPN3-PDZ [2] is listed as “a few tens of”.

B1: full-length HBc: full-length HBc expressed in Escherichia coli mainly assembles into capsid-like particles (CLPs) (protein)
chain: MDIDPYKEFGATVELLSFLPSDFFPSVRDLLDTASALYREALESPEHCSPHHTALRQAILCWGELMTLATWVGVNLEDPASRDLVVSYVNTNMGLKFRQLLWFHISCLTFGRETVIEYLVSFGVWIRTPPAYRPPNAPILSTLPETTVVRRRGRSPRRRTPSPRRRRSQSPRRRRSQSRESQC
As to B1, the “effect on TROSY resonances of PTPN3-PDZ” value with PTPN3-PDZ [3] was “nearly all of the TROSY resonances observed with free PTPN3-PDZ had disappeared”.

B2: HBc WT: HA-Flag-tagged wild-type full-length HBc (protein)
chain: MDIDPYKEFGATVELLSFLPSDFFPSVRDLLDTASALYREALESPEHCSPHHTALRQAILCWGELMTLATWVGVNLEDPASRDLVVSYVNTNMGLKFRQLLWFHISCLTFGRETVIEYLVSFGVWIRTPPAYRPPNAPILSTLPETTVVRRRGRSPRRRTPSPRRRRSQSPRRRRSQSRESQC
As for B2, the “binding in GST pull-down” value in the test on GST-PTPN3-PDZ is reported as “detected only in interaction with GST-PTPN3-PDZ”.

B3: PBM-HBc peptide (C-terminal PDZ-binding motif of the hepatitis B virus core protein) (peptide)
peptide: RRRRSQSRESQC
notes: also called PBM of HBc; source: synthetic peptide (Fmoc solid phase, PROTEOGENIX)
B3: the binding result in [4] is reported as “binds”.
